Assay results as given in patent US6288037A (BASF Aktiengesellschaft, priority 1996, dated 2001).
Where a SMILES comes first, the peptide text is derived from it.

Legend:
N-His Ich-1 [1] = target: T1, N-His Ich-1 (Homo sapiens, UniProt P42575); test: In vitro proteolysis assay with chromogenic para-nitroaniline-labeled peptide substrate (absorbance 405 nm); format: biochemical
T1 construct: contains Ich-1 amino acid residues 167-435, with an initiator and polyhistidine tag fused to the amino terminus; initiator (Met) + polyhistidine tag (N); made in house
T1 sequence (P42575 184-333): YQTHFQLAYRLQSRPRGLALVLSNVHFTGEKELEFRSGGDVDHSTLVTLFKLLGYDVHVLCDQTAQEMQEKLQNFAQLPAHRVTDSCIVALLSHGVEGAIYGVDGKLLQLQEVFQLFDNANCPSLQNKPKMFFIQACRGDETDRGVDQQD
T1 sequence (P42575 334-452): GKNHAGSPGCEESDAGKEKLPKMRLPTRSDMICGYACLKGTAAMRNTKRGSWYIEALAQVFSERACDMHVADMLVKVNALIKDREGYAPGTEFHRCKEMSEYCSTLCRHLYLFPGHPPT
Description: To identify peptide substrates for Ich-1, candidate peptides were used in in vitro proteolysis assays with recombinant Ich-1 protein. Human Ich-1 enzyme (the nucleotide and amino acid sequences for which are disclosed in Wang, L., et al. (1994) Cell 78:739-750) was expressed recombinantly with an N-terminal polyhistidine tag by methods described in Kamens, J., et al. (1995) J. Biol. Chem. 270:15250-15256. The resulting enzyme, called N-His Ich-1, contains Ich-1 amino acid residues 167-435, with an initiator and polyhistidine tag fused to the amino terminus. […]
A peptidic aldehyde inhibitor of Ich-1 was designed based upon the optimal peptide substrate (Peptide 43) described in Example 3. […] The ability of this peptidic aldehyde inhibitor to inhibit N-His Ich-1 activity was determined in in vitro proteolysis assays using a chromogenic para-nitroaniline-labeled peptide substrate. […]
To perform the proteolysis assay, N-His Ich-1 was preincubated for 30 minutes at 30° C. in 160 μl of a reaction buffer containing 100 mM sodium acetate (pH 6.2), 20% (v/v) glycerol, 5 mM DTT, 0.5 mM EDTA, […]. […] The incubation of N-His Ich-1 with the peptide substrate at 30° C. was continued, and the catalytic hydrolysis of peptide substrate was monitored by the change in absorbance of the samples at 405 nm due to release of pNA as a function of time. […]

N-His Ich-1 [2] = test: reaction buffer containing 100 mM sodium acetate (pH 6.2), 20% (v/v) glycerol, 5 mM DTT, 0.5 mM EDTA, at pH 7.5; details: Human, 30° C.

Compound | IC50 (N-His Ich-1 [1]; 500 μM pNA substrate, inhibitor 0.1 nM to 10 μM, sigmoidal fit) [nM] | Ki (N-His Ich-1 [1]; calculated from IC50, [S] and Km, read-out: apparent Ki) [nM] | cleaved bond (N-His Ich-1 [2])
CC(=O)N[C@H](C(=O)N[C@@H](CC(=O)O)C(=O)N[C@H](C(=O)N[C@@H](C)C(=O)N[C@H](C=O)CC(=O)O)C(C)C)C(C)C [Ac-VDVAD-CHO, acetyl-Val-Asp-Val-Ala-Asp-CHO] (Ac-VDVAD-aldehyde) | 8 | 2.5 | –
acetyl-Val-Asp-Val-Ala-Asp-para-nitroaniline | – | – | Asp-pNA
